The text below walks through data of paper PMC9820167, “Design and Synthesis of Conformationally Flexible Scaffold as Bitopic Ligands for Potent D3-Selective Antagonists” (International Journal of Molecular Sciences, 2022).

Some targets named below: Serotonin 5-HT1D (Homo sapiens, UniProt P28221); Serotonin 5-HT2A (Homo sapiens, UniProt P28223); Histamine H2 (Homo sapiens, UniProt P25021).
Holding throughout (test): PDSP binding screen
The next assay concerns the target T1, Opioid DOR (Homo sapiens, UniProt P41143).
T1 construct: Psychoactive Drug Screening Program (PDSP)
The settings on record: read-out: Ki (nM) or % inhibition at 10 µM: DOR. An excerpt:
(§1) Based on the results in the dopamine receptor radioligand binding assays, nine flexible-based compounds were selected for further evaluation for off-target binding with other GPCRs through the Psychoactive Drug Screening Program (PDSP) (Supplemental Table S2). […] For example, many of the N-aryl piperazine-based analogs that our group developed in the past for either the D2 or D3 receptor had high affinity for the 5-HT1A receptor [55, 56, 57, 58]. […] This mitochondrial-based protein is typically used as a target for imaging neuroinflammation. The results of the PDSP-binding assays also confirmed the data obtained in our lab for the binding of this panel of nine compounds to D2 and D3 receptors (Supplemental Table S2).

A further assay concerns the target T2, Serotonin 5-HT1E (Homo sapiens, UniProt P28566).
T2 construct: Psychoactive Drug Screening Program (PDSP)
Conditions: read-out: Ki (nM) or % inhibition at 10 µM: 5-HT1E; PDSP; HCl salts.
Excerpt: as §1

The next assay concerns the target T3, Serotonin 5-HT5A (Homo sapiens, UniProt P47898).
T3 construct: Psychoactive Drug Screening Program (PDSP)
Conditions: read-out: Ki (nM) or % inhibition at 10 µM: 5-HT5A.
Excerpt: as §1

Assay [1] deals with T4, Serotonin transporter (SERT) (Homo sapiens, UniProt P31645).
T4 construct: Psychoactive Drug Screening Program (PDSP)
The settings on record: PDSP; HCl salts.
Excerpt: as §1

A further assay concerns the target T5, Adrenergic alpha1D (Homo sapiens, UniProt P25100).
T5 sequence (P25100 1-572): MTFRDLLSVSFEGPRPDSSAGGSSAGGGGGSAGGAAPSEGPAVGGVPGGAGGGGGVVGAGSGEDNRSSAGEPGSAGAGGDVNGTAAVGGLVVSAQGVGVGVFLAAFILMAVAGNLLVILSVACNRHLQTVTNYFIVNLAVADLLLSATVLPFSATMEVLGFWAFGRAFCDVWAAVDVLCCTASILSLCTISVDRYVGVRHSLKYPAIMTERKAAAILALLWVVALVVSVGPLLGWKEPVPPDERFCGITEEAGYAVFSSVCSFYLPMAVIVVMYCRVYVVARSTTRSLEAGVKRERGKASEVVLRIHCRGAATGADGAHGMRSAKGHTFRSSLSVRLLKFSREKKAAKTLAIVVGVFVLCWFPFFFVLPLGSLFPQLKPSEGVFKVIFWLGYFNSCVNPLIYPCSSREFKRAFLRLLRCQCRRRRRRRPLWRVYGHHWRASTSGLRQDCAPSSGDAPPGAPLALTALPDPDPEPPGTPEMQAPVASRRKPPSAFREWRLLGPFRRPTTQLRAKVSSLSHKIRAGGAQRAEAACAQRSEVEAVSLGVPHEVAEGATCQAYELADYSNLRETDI
Conditions: read-out: Ki (nM) or % inhibition at 10 µM: alpha1D.

For another assay, the target named is T6, Adrenergic alpha2B (Homo sapiens, UniProt P18089).
T6 sequence (P18089 1-450): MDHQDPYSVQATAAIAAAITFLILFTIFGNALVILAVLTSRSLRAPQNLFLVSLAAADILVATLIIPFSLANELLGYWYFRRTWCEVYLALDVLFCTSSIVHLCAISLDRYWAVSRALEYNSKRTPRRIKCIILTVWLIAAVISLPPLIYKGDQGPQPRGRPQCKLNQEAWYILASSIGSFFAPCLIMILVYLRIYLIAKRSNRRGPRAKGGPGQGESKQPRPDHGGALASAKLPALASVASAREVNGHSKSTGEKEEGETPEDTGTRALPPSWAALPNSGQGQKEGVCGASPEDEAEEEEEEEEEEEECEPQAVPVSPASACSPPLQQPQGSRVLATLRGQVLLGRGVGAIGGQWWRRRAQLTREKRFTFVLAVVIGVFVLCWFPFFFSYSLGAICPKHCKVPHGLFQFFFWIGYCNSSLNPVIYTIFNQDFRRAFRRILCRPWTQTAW

For the next assay, the target named is Dopamine D1 (Homo sapiens, UniProt P21728). The settings on record: read-out: Ki (nM) or % inhibition at 10 µM: D1.
A further assay concerns the target T7, Muscarinic M1 (Homo sapiens, UniProt P11229).
T7 sequence (P11229 1-460): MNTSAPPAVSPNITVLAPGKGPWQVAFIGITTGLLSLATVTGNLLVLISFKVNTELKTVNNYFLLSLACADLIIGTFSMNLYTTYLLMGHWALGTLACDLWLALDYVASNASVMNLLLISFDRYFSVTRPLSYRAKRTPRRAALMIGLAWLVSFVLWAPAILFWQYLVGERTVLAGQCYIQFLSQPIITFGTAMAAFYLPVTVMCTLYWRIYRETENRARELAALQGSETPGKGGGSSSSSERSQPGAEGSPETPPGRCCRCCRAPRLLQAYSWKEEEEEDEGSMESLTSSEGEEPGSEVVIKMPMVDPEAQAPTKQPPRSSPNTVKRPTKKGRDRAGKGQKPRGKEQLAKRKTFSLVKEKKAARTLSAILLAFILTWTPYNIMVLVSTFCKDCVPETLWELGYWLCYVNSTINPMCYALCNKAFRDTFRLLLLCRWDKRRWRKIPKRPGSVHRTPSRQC
Conditions: read-out: Ki (nM) or % inhibition at 10 µM: M1.

Sequence of Histamine H2 (P25021 whole entry): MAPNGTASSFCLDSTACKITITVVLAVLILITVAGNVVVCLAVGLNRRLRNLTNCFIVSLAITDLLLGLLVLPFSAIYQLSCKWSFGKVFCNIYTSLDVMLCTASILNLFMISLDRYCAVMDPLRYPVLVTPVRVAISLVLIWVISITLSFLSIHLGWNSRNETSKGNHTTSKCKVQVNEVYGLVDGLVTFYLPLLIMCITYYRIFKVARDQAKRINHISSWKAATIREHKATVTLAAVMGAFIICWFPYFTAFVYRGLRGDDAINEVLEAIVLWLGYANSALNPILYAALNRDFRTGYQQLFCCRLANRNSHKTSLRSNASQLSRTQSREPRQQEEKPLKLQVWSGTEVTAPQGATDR
Sequence of Serotonin 5-HT1D (P28221 whole entry): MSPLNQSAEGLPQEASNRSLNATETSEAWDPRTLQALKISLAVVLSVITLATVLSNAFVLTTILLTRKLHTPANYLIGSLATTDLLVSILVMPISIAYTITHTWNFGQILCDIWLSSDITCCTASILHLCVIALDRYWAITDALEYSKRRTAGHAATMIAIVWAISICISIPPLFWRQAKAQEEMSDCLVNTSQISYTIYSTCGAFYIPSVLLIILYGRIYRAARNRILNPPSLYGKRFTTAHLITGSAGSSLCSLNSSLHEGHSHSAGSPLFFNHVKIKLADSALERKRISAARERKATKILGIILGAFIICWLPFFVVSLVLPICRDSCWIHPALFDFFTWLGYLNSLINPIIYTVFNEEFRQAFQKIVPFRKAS
T3 sequence (P47898 whole entry): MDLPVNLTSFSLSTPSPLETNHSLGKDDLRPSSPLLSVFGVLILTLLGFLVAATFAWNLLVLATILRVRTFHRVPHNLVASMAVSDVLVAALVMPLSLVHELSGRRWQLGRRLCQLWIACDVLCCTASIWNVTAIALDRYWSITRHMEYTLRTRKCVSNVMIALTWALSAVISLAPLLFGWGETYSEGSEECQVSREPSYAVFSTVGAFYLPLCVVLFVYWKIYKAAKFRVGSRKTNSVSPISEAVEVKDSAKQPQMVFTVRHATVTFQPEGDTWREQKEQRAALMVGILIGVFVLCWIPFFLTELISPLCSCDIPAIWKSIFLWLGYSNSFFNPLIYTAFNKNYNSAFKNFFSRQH
T4 sequence (P31645 whole entry, species assumed): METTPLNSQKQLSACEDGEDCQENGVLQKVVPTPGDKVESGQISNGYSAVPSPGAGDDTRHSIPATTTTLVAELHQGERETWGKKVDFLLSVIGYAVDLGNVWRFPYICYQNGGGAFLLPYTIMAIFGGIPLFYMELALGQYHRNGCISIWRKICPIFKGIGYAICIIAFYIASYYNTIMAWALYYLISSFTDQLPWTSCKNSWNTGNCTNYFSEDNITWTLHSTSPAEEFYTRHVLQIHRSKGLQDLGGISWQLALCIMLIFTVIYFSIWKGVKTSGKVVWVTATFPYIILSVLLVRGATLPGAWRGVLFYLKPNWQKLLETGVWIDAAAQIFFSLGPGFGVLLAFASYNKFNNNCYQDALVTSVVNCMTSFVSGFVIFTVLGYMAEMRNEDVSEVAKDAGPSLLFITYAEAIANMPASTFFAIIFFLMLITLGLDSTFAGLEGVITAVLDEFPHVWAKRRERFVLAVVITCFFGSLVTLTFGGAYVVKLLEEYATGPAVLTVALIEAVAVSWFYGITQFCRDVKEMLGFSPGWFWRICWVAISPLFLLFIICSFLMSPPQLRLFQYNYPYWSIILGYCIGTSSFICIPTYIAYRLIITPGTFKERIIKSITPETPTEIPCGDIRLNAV
T1 sequence (P41143 whole entry): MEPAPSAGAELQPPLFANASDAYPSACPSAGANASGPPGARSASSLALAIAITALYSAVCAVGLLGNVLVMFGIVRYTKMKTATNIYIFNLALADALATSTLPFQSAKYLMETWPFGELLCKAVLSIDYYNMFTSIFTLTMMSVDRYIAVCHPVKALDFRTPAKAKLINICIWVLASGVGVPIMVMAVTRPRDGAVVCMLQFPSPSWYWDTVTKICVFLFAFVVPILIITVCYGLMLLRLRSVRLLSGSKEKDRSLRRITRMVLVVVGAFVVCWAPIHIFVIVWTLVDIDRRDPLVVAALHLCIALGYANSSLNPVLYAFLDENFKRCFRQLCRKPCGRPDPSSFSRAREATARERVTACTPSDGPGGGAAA
T2 sequence (P28566 whole entry): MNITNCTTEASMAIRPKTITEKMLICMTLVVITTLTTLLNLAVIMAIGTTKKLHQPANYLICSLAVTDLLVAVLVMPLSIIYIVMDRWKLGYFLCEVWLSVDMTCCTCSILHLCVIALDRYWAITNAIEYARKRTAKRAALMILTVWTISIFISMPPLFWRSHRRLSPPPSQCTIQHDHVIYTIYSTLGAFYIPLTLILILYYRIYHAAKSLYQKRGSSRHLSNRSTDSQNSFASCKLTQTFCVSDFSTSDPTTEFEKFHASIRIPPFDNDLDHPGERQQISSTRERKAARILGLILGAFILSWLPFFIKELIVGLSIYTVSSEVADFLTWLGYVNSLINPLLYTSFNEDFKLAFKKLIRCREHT
Sequence of Dopamine D1 (P21728 whole entry): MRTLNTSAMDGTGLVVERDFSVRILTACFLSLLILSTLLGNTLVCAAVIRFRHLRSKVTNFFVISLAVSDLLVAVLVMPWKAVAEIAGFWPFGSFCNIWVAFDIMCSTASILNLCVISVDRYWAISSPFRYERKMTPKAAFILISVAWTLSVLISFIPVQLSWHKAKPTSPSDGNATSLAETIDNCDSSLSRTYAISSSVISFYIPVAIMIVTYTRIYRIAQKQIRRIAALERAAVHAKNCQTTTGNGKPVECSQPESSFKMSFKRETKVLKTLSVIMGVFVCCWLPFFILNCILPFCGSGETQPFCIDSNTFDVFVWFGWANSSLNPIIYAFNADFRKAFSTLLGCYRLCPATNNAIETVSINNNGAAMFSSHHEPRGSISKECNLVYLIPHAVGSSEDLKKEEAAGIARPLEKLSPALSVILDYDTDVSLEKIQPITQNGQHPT
Sequence of Serotonin 5-HT2A (P28223 whole entry): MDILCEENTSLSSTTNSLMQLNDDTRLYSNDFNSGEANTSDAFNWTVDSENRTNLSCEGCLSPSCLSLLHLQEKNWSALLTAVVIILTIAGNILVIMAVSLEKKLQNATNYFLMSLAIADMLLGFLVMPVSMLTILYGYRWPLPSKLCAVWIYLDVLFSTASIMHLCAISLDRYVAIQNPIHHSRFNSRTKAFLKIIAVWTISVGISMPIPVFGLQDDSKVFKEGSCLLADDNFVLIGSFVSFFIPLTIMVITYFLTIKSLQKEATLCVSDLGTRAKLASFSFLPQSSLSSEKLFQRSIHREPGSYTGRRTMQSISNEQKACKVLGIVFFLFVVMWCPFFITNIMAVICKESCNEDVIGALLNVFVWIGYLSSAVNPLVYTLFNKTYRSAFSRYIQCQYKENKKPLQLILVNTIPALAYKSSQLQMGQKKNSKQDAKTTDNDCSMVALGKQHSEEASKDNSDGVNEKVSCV

As to `CCN(CCCNC(=O)c1cc2ccccc2n1C)CCNC(=O)c1cc(Br)cc(OC)c1OC` [21j, N-(3-((2-(5-Bromo-2,3-dimethoxybenzamido)ethyl)(ethyl)amino)propyl)-1-methyl-1H-indole-2-carboxamide], the inhibition at 10 µM on Opioid DOR, on Serotonin 5-HT1E, at Serotonin 5-HT5A, at Adrenergic alpha1D, at Dopamine D1 and at Muscarinic M1 was < 50% throughout. Besides, the Ki stood at 0.415 µM in assay [1]; 1.93 µM on Serotonin 5-HT1D; 3.14 µM on Serotonin 5-HT2A; 0.646 µM on Adrenergic alpha2B; 3.68 µM on Histamine H2.

The inhibition is the change of the read-out against control, counted positive when it falls. What is called Ki is the equilibrium dissociation constant of an inhibitor or competing ligand from its target.
